Experimental data: patent US20240254115A1 (ACONDICIONAMIENTO TARRASENSE, priority 2021, published 2024)

What was measured:
human σ1 receptor = biological target: T1, human σ1 receptor (Homo sapiens, UniProt Q99720); test: Human σ1 receptor radioligand assay; details: transfected HEK-293 membranes, 5 nM [3H](+)-pentazocine, 37° C. 120 minutes; + may also stand for 1-50% inhibition at 1 or 10 μM; read-out: Binding σ-1 Ki
T1 construct: expressed in transfected cells; host or cells: HEK-293
Experimental: Human σ1 Receptor Radioligand Assay
Transfected HEK-293 membranes (7 μg) were incubated with 5 nM of [^3H](+)-pentazocine in assay buffer containing Tris-HCl 50 mM at pH 8. NBS (non-specific binding) was measured by adding 10 μM haloperidol. The binding of the test compound was measured at either one concentration (% inhibition at 1 or 10 μM) or five different concentrations to determine affinity values (Ki). Plates were incubated at 37° C. for 120 minutes. After the incubation period, the reaction mix was then transferred to MultiScreen HTS, FC plates (Millipore), filtered and plates were washed 3 times with ice-cold 10 mM Tris-HCL (pH7.4). Filters were dried and counted at approximately 40% efficiency in a MicroBeta scintillation counter (Perkin-Elmer) using EcoScint liquid scintillation cocktail.

human σ2/TMEM97 receptor = biological target: T2, human σ2/TMEM97 receptor (Homo sapiens, UniProt Q5BJF2); test: Binding assay to human σ2/TMEM97 receptor; details: transfected HEK-293 membranes, 10 nM [3H]-DTG, 25° C. 120 minutes; + may also stand for 1-50% inhibition at 1 or 10 μM; read-out: Binding σ-2 Ki
T2 construct: expressed in transfected cells; host or cells: HEK-293
T2 sequence (Q5BJF2 whole entry): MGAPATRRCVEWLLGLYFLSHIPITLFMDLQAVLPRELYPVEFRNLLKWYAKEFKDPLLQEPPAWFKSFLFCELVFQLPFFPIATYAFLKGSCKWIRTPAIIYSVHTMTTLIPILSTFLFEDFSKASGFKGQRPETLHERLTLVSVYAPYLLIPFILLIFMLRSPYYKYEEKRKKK
Experimental: Binding Assay to Human σ2/TMEM97 Receptor
Transfected HEK-293 membranes (15 μg) were incubated with 10 nM [^3H]-1,3-Di-o-tolylguanidine (DTG) in assay buffer containing Tris-HCl 50 mM at pH 8.0. NSB (non-specific binding) was measured by adding 10 μM haloperidol. The binding of the test compound was measured at either one concentration (% inhibition at 1 or 10 μM) or five different concentrations to determine affinity values (Ki). Plates were incubated at 25° C. for 120 minutes. After the incubation period, the reaction mix was transferred to MultiScreen HTS, FC plates (Millipore), filtered and washed 3 times with ice-cold 10 mM Tris-HCL (pH 8.0). Filters were dried and counted at approximately 40% efficiency in a MicroBeta scintillation counter (Perkin-Elmer) using EcoScint liquid scintillation cocktail.

T1 sequence (Q99720 whole entry): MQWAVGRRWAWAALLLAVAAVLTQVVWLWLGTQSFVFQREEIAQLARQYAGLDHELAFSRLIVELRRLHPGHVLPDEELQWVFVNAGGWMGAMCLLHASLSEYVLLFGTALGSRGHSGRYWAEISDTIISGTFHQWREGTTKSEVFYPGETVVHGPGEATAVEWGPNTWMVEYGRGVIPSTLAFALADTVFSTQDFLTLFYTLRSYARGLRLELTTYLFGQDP

| Structure (SMILES) | Ki (human σ1 receptor) [nM] | Ki (human σ2/TMEM97 receptor) [nM] |
| --- | --- | --- |
| CN(Cc1ccccc1)[C@H]1CC[C@H](NS(=O)(=O)c2ccc(N3CCC4(CCOC4)CC3)nc2)CC1 [Example 31] | < 100 | < 100 |
| O=S(=O)(N[C@H]1CCN(Cc2ccccc2)C1)c1ccc(N2CCOCC2)nc1 [Example 1, (S)—N-(1-Benzylpyrrolidin-3-yl)-6-morpholinopyridine-3-sulfonamide] | < 100 | > 1000 |
| CN(C)c1ccc(S(=O)(=O)N[C@H]2CCN(Cc3ccccc3)C2)cn1 [Example 21, (S)-N-(1-Benzylpyrrolidin-3-yl)-6-(dimethylamino) pyridine-3-sulfonamide] | < 100 | > 1000 |
| O=S(=O)(N[C@@H]1CCN(Cc2ccc(C(F)(F)F)nc2)C1)c1ccc(N2CCOCC2)nc1 [Example 44, (R)-6-Morpholino-N-(1-((6-(trifluoromethyl)pyridin-3-yl)methyl)pyrrolidin-3-yl)pyridine-3-sulfonamide] | 500 to 1000 | > 1000 |
| O=S(=O)(NC1CCN(Cc2ccc(Cl)cc2)CC1)c1ccc(N2CCOCC2)nc1 [Example 10, N-(1-(4-Chlorobenzyl)piperidin-4-yl)-6-morpholinopyridine-3-sulfonamide] | < 100 | > 1000 |
| O=S(=O)(c1ccc(N2CCC(F)(F)CC2)nc1)N1CCC2(CCN(Cc3ccccc3)CC2)CC1 [Example 74, 3-Denzyl-9-((6-(4,4-difluoropiperidin-1-yl)pyridin-3-yl)sulfonyl)-3,9-diazaspiro[5.5]undecane] | 100 to 500 | < 100 |
| O=S(=O)(c1ccc(N2CCOCC2)nc1)N1CCC2(CCN(Cc3ccccc3)CC2)CC1 [Example 12, 4-(5-((9-Benzyl-3,9-diazaspiro[5.5]undecan-3-yl)sulfonyl)pyridin-2-yl)morpholine] | > 1000 | < 100 |
| N#Cc1cccc(CN2CC[C@@H](NS(=O)(=O)c3ccc(N4CCOCC4)nc3)C2)c1 [Example 40, (R)-N-(1-(3-Cyanobenzyl)pyrrolidin-3-yl)-6-morpholinopyridine-3-sulfonamide] | 100 to 500 | > 1000 |
| CC(C)(C)CCN1CCCC2(CCN(S(=O)(=O)c3ccc(N4CCOCC4)nc3)CC2)C1 [Example 75, 4-(5-((2-(3,3-Dimethylbutyl)-2,9-diazaspiro[5.5]undecan-9-yl)sulfonyl)pyridin-2-yl)morpholine] | < 100 | < 100 |

The remaining lines, values ahead:

| Ki (human σ1 receptor) [nM] | Ki (human σ2/TMEM97 receptor) [nM] | Structure (SMILES) |
| --- | --- | --- |
| 500 to 1000 | 500 to 1000 | O=C1OCCN1c1ccc(S(=O)(=O)N2CCC3(CCCN(Cc4cc(F)ccc4F)C3)CC2)cn1 [Example 146, 3-(5-((2-(2,5-Difluorobenzyl)-2,9-diazaspiro[5.5]undecan-9-yl)sulfonyl)pyridin-2-yl)oxazolidin-2-one] |
| 100 to 500 | 100 to 500 | CN(Cc1cc(F)ccc1F)C1CCN(S(=O)(=O)c2ccc(N3CCC(F)(F)CC3)nc2)CC1 [Example 174, N-(2,5-Difluorobenzyl)-1-((6-(4,4-difluoropiperidin-1-yl)pyridin-3-yl)sulfonyl)-N-methylpiperidin-4-amine] |
| 100 to 500 | < 100 | N#Cc1ccc(CN2CCCC3(CCN(S(=O)(=O)c4ccc(N5CCOC5=O)nc4)CC3)C2)cc1F [Example 151, 2-Fluoro-4-((9-((6-(2-oxooxazolidin-3-yl)pyridin-3-yl)sulfonyl)-2,9-diazaspiro[5.5]undecan-2-yl)methyl)benzonitrile] |
| < 100 | < 100 | CC(C)(C)CCN1CCCC2(CCN(S(=O)(=O)c3ccc(N4CCOC4=O)cn3)CC2)C1 [Example 154, 3-(6-((2-(3,3-Dimethylbutyl)-2,9-diazaspiro[5.5]undecan-9-yl)sulfonyl)pyridin-3-yl)oxazolidin-2-one] |
| 100 to 500 | < 100 | CC(C)(C)CCN1CCC2(CC1)CCN(S(=O)(=O)c1ccc(N3CCOC3=O)nc1)CC2 [Example 134, 3-(5-((9-(3,3-Dimethylbutyl)-3,9-diazaspiro[5.5]undecan-3-yl)sulfonyl)pyridin-2-yl)oxazolidin-2-one] |
